Key:
[1] = test system: cucumber cotyledon disks; experiment: Electrolyte leakage assay; format: cell-based; settings: for destabilization of cell membranes, electrolyte leakage / electrolyte leakage versus boiled positive control: 100 and 300 μM; for electrolyte leakage versus boiled positive control: 16 h dark plus 26 h of high light intensity
Experimental: The effects of pure furanochromones, compounds of formulas III and IV (Sigma Aldrich), on membrane stability were studied as described by Dayan and Watson.^23 Cucumber cotyledon disks were exposed to each furanochromone at 100 and 300 μM. Control tissues were exposed to the same solvent as treated tissues but without the compounds. Conductivity measurements were carried out at the beginning of the dark incubation period, a second measurement was made after 16 h, at which time the samples were placed under high light intensity, and final measurements were made after 8 and 26 h of light exposure. Each experiment consisted of three replicates. Maximum conductivity was measured by boiling three samples of each treatment for 20 min. To study if electrolyte leakage caused by compounds of formulas III and IV was light-dependent, two sets of Petri plates were prepared with cucumber cotyledon disks exposed to test compounds and control in both. One set was treated as described before (dark 16 h/light 26 h) while the other one was kept in darkness for 42 h. Conductivity measurements were done at the indicated times.

[2] = test system: lettuce; experiment: Postemergence bioassay with lettuce in Petri dishes; format: in vivo; settings: Lactuca sativa, post-emergence, day 6 (4 days after postemergence application), read-out: Average growth inhibition (%) as percentage of control; for inhibition at 500 µM: 0.50 mM; for inhibition at 1000 µM: 1.00 mM; for inhibition at 1500 µM: 1.50 mM
Experimental: Compounds of formula III and IV above were tested at different concentrations in a postemergence bioassay (in Petri dishes) against lettuce. Lettuce seeds were pre-incubated in Petri dishes with a filter paper and water for 2 days. After that, seedlings (15 mm approx.) were moved to a new Petri dish containing 4 mL of an aqueous solution of each compound or commercial herbicide. Plants length was measured at day 6 (4 days after postemergence application of the compounds). The results were compared to those obtained with acetochlor and glyphosate.
Plant length's axis starts in 15 mm because seeds were pre-incubated in water, so all seedlings were around 15 mm long at the beginning of the treatment.

[3] = test system: cucumber leaf disks; experiment: Cell death determination by Evans blue staining, leaf disks; format: cell-based; settings: 7 days; for increase in relative cell death with respect to the control: 100 μM; for increase in relative cell death: 300 μM
Experimental: To evaluate cell death in roots, onion seeds were germinated and treated as described in postemergence assay with weed species. Onion seedlings were exposed to different doses of compounds of formulas III and IV (0, 100 and 300 μM) during 4 days. For the experiment with leaf disks 3-weeks-cucumber plants were used. One disk (1 cm) was placed in each well of a 12-well plate together with 1 mL of a 2% w/v sucrose/1 mM MES, pH 6.5 solution containing each of the compounds tested at the appropriate concentration (0, 100 or 300 μM) and acetone (1% v/v). Each assay was performed with leaf disks from different plants. Plates were sealed with Parafilm and incubated in a growth chamber at 21-27° C. with a 16/8 h light/dark cycle for 7 days.
Cell death was determined by Evans blue staining.^26 Root tips (5-mm sections) and leaf disks were incubated for 30 min in 0.25% w/v Evans blue aqueous solution at 25° C. on a rotary shaker. After staining, unbound dye was removed by extensive washing with deionized water. Three root tips (3 replicates) or one leaf disk (4 replicates) were ground in a tissue grind tube with 500 μL 1% w/v sodium dodecyl sulfate (SDS). The resulting suspension was centrifuged for 20 min at 20,000 g and the supernatant was used for dye quantification by monitoring the absorbance at 600 and 680 nm. Relative cell death was expressed as A600 for root tips and A600/A680 ratios for leaf disks.

[4] = test system: A. cepa root meristem cells; experiment: Effect on cell division (mitotic index analysis); format: cell-based, Allium cepa; settings: for inhibition of cell division: 0 to 1000 μM; for reversibility of inhibition of cellular division: 100 μM, seeds washed at 3 days; for proportion of cells with abnormal configurations: chromosome aberrations, nuclear abnormalities, micronuclei
Experimental: Onion seeds (Allium Cepa L. Evergreen Longwhite Bunching, Burpee & Co, 2012, EE.UU) germination was carried out for 7 days with a 14-h photoperiod in 9-cm-diameter Petri dishes on a filter paper disk that was moistened with a dilution (2.5 mL) of test compound or control. Stock solutions of test compounds (100×) were prepared in acetone, and aliquots were diluted in distilled water to get the final concentration. The control consisted of water with the same proportion of acetone (1% v/v) applied in the treatments.
At 7 days of incubation, samples were processed for mitotic index analysis according to Armbruster et al.^25 Twenty root tips (1-cm sections) were fixed in glacial acetic acid:absolute ethanol (1:3 v/v) for 30 min. The segments were incubated with 5 N HCl at 25° C. for 1 h, and washed several times with distilled water. After that, segments were stained with Schiff's reagent for 45 min in the dark at 25° C. Stained meristematic regions were identified as purple tips. The root segments were transferred with tweezers to a drop of 45% acetic acid in water on a microscope slide. The tips were cut with a razor blade, and a cover slip was carefully placed over the tips and gently squashed by applying slight and constant pressure directly over the tissues. The edge of the cover slip was sealed with nail polish to delay the evaporation of acetic acid. The mitotic index was calculated by tallying the cells in various stages of mitosis. At least 1,000 cells/slide and in triplicate (3,000 cells per treatment) were counted for suitable statistical analysis of data. An Olympus BX60 microscope (Olympus, Center Valley) was used, and cells with abnormal mitotic configurations were counted as a separate class.
This procedure was slightly modified to evaluate if cell division inhibition caused by furanochromones was reversible. For this experiment onion seeds were incubated with solutions containing compounds of formulas III and IV for 3 days. After this period, all seeds were washed three times with distilled water and placed in new Petri dishes on moistened filter paper disks with distilled water (Wash+treatment). Seeds were then incubated for 4 more days, after which a mitotic index analysis was performed. As a reference to compare results, another set of onion seeds was kept with test compounds or control for 7 days (Wash−treatment) before analysis.

Compound: COc1c2ccoc2cc2oc(C)cc(=O)c12 [Formula IV, 4-methoxy-7-methyl-5H-furo[3,2-g]chromen-5-one]
- electrolyte leakage ([1]; 100 μM, after 8 h in the light): caused electrolyte leakage
- destabilization of cell membranes, electrolyte leakage [1]: significant electrolyte leakage
- electrolyte leakage versus boiled positive control [1]: comparable to the positive control
- inhibition at 500 µM [2]: 22%
- inhibition at 1000 µM [2]: 85%
- inhibition at 1500 µM [2]: 91%
- increase in relative cell death with respect to the control [3]: ~35%
- increase in relative cell death [3]: 3.5 fold
- inhibition of cell division ([4]; 7 days): inhibited cell division in a dose-dependent manner
- reversibility of inhibition of cellular division [4]: irreversible
- inhibition of onion cell division ([4]; 300 μM, 7 days): completely inhibited
- proportion of cells with abnormal configurations [4]: higher than in the control

Compound: COc1c2occc2c(OC)c2c(=O)cc(C)oc12 [Formula III, 4,9-dimethoxy-7-methyl-5H-furo[3,2-g]chromen-5-one]
- destabilization of cell membranes, electrolyte leakage [1]: significant electrolyte leakage
- electrolyte leakage versus boiled positive control [1]: comparable to the positive control
- inhibition at 500 µM [2]: 22%
- inhibition at 1000 µM [2]: 85%
- inhibition at 1500 µM [2]: 91%
- increase in relative cell death with respect to the control [3]: ~35%
- increase in relative cell death [3]: 3.5 fold
- inhibition of cell division ([4]; 7 days): inhibited cell division in a dose-dependent manner
- reversibility of inhibition of cellular division [4]: irreversible
- proportion of cells with abnormal configurations [4]: higher than in the control
